Measured values as given in patent US9629856B2, “Compositions and methods for the treatment of skin diseases and disorders using antimicrobial peptide sequestering compounds” (Anteis SA, priority 2010, dated 2017).

Tested on: Rosacea patients
Test: Clinical study with rosacea patients
Details: human, in vivo
Procedure: The following assessments or evaluations were performed before the treatment (Visit 1) and during the treatment period after about 2 weeks (Visit 2), about 4 weeks (Visit 3) and about 8 weeks (Visit 4): Tolerability including burning/stinging/tingling, pruritis, dryness, scaling/peeling and atrophy were evaluated of the face by the investigator (i.e., dermatologist) according to the following scale: 0=none, 1=mild, 2=moderate, 3=severe. Furthermore, any adverse events experienced by subject during the study period, whether related to the treatment or not, were recorded. Assessment of overall skin conditions of the face was performed by the investigator (i.e., dermatologist) according to the following scoring system: [table] Count of total number of inflammatory lesions (papules and pustules) on the face by the investigator (i.e., dermatologist). Evaluation of the severity of both redness/erythema and telangiectasia on the face by the investigator (i.e., dermatologist) according to the following scale: [table] […] Clinical photographs were taken at all visits utilizing standardized conditions for all subjects. […] In case possible, cross-polarized, parallel-polarized and visible light images were acquired along with both blue fluorescence and ultraviolet fluorescence images.

In the case of “Hydroxypropyl Starch Phosphate [Structure XL]”, the immunotoxic effects is reported as “no evidence of immunotoxic effects”.
